According to US9371342B2, “Isoprene oligomer, polyisoprene, processes for producing these materials, rubber composition, and pneumatic tire” (priority 2010, dated 2016):

Legend:
[1] = molecular target: T1, variant enzyme N31A of undecaprenyl diphosphate synthase (Micrococcus luteus, UniProt O82827, N31A); experiment: Relative activity of variant enzyme N31A on initiating substrates; type: biochemical, Micrococcus luteus B-P 26; settings: index, activity of wild-type enzyme on same initiating substrate as 100; 12.5 μM initiating substrate, 1 hour, 37° C.
T1 construct: made in house; host or cells: E. coli; site-directed mutagenesis of pET22b/MLU-UPS
Protocol: (§1) Reaction was performed under conditions shown below using each of the initiating substrates prepared in Production Examples 1 to 11 or farnesyl diphosphate. The activity of each variant enzyme on each initiating substrate was indicated by index with the activity of the wild-type enzyme (Micrococcus luteus B-P 26-derived undecaprenyl diphosphate synthase) as 100.
(§2) After the reaction, liquid scintillation counting and TLC quantification were performed to measure the activity of each enzyme.

[2] = molecular target: T2, variant enzyme N31Q of undecaprenyl diphosphate synthase (Micrococcus luteus, UniProt O82827, N31Q); experiment: Relative activity of variant enzyme N31Q on initiating substrates; type: biochemical, Micrococcus luteus B-P 26; settings: index, activity of wild-type enzyme on same initiating substrate as 100; 12.5 μM initiating substrate, 1 hour, 37° C.
T2 construct: made in house; host or cells: E. coli; site-directed mutagenesis of pET22b/MLU-UPS
Protocol: as §1, §2

[3] = molecular target: T3, variant enzyme N77A of undecaprenyl diphosphate synthase (Micrococcus luteus, UniProt O82827, N77A); experiment: Relative activity of variant enzyme N77A on initiating substrates; type: biochemical, Micrococcus luteus B-P 26; settings: index, activity of wild-type enzyme on same initiating substrate as 100; 12.5 μM initiating substrate, 1 hour, 37° C.
T3 construct: made in house; host or cells: E. coli; site-directed mutagenesis of pET22b/MLU-UPS
Protocol: as §1, §2

[4] = molecular target: T4, Sulfolobus acidocaldarius-derived geranylgeranyl diphosphate synthase (Sulfolobus acidocaldarius, UniProt P39464); experiment: Relative activity of geranylgeranyl diphosphate synthase on initiating substrates; type: biochemical; settings: 12.5 μM initiating substrate, pH 5.8, 1 hour, 55° C.
T4 construct: made in house; host or cells: E. coli BL21 (DE3)
Protocol: Likewise, reaction was performed under conditions shown below using Sulfolobus acidocaldarius-derived geranylgeranyl diphosphate synthase and each of the initiating substrates 1 to 4, the compound represented by the formula (B), the compound represented by the formula (C), the compound represented by the formula (G), the compound represented by the formula (K), the compound represented by the formula (F), the compound represented by the formula (I), the compound represented by the formula (Q), farnesyl diphosphate (FPP), and geranyl diphosphate (GPP). The results were indicated in Tables 12 and 13 by the relative activity of the enzyme on the initiating substrates 1 to 4, the compound represented by the formula (B), the compound represented by the formula (C), the compound represented by the formula (G), the compound represented by the formula (K), the compound represented by the formula (F), the compound represented by the formula (I), and the compound represented by the formula (QO) with the activity of the enzyme on farnesyl diphosphate or geranyl diphosphate as 100.
(§3) After the reaction, liquid scintillation counting and TLC quantification were performed to measure the activity of the enzyme on each initiating substrate.

[5] = molecular target: T5, Bacillus stearothermophilus-derived farnesyl diphosphate synthase (Geobacillus stearothermophilus, UniProt Q08291); experiment: Relative activity of farnesyl diphosphate synthase on initiating substrates; type: biochemical; settings: activity of the enzyme on geranyl diphosphate as 100; 12.5 μM initiating substrate, pH 8.5, 1 hour, 55° C.
T5 construct: made in house; host or cells: E. coli BL21 (DE3)
Protocol: Reaction was performed under conditions shown below using the obtained Bacillus stearothermophilus-derived farnesyl diphosphate synthase and each of the initiating substrates 1 to 4, the compound represented by the formula (F), the compound represented by the formula (I), the compound represented by the formula (QO), and geranyl diphosphate (GPP) whose structure is shown below. The results were indicated in Table 11 by the relative activity of the enzyme on the initiating substrates 1 to 4, the compound represented by the formula (F), the compound represented by the formula (I), and the compound represented by the formula (Q) with the activity of the enzyme on geranyl diphosphate as 100.
as §3

[6] = molecular target: T6, Micrococcus luteus B-P 26-derived undecaprenyl diphosphate synthase (wild-type enzyme) (Micrococcus luteus, UniProt O82827); experiment: Relative activity of wild-type undecaprenyl diphosphate synthase on initiating substrates; type: biochemical; settings: activity of the enzyme on farnesyl diphosphate as 100; 12.5 μM initiating substrate, pH 7.5, 1 hour, 37° C.
T6 construct: made in house; host or cells: E. coli; plasmid pET22b/MLU-UPS
Protocol: as §1, §2
Next, reaction was performed under conditions shown below using Micrococcus luteus B-P 26-derived undecaprenyl diphosphate synthase as an enzyme and each of the initiating substrates 1 to 4, the compound represented by the formula (B), the compound represented by the formula (C), the compound represented by the formula (G), the compound represented by the formula (K), and farnesyl diphosphate (FPP). The results were indicated in Table 10 by the relative activity of the enzyme on the initiating substrates 1 to 4, the compound represented by the formula (B), the compound represented by the formula (C), the compound represented by the formula (G), and the compound represented by the formula (K) with the activity of the enzyme on farnesyl diphosphate as 100.
as §3

[7] = molecular target: T7, variant enzyme L91D of undecaprenyl diphosphate synthase (Micrococcus luteus, UniProt O82827, L91D); experiment: Relative activity of variant enzyme L91D on initiating substrates; type: biochemical, Micrococcus luteus B-P 26; settings: index, activity of wild-type enzyme on same initiating substrate as 100; 12.5 μM initiating substrate, 1 hour, 37° C.
T7 construct: made in house; host or cells: E. coli; site-directed mutagenesis of pET22b/MLU-UPS
Protocol: as §1, §2

[8] = molecular target: T8, variant enzyme F95W of undecaprenyl diphosphate synthase (Micrococcus luteus, UniProt O82827, F95W); experiment: Relative activity of variant enzyme F95W on initiating substrates; type: biochemical, Micrococcus luteus B-P 26; settings: index, activity of wild-type enzyme on same initiating substrate as 100; 12.5 μM initiating substrate, 1 hour, 37° C.
T8 construct: made in house; host or cells: E. coli; site-directed mutagenesis of pET22b/MLU-UPS
Protocol: as §1, §2

[9] = molecular target: T9, variant enzyme L91G of undecaprenyl diphosphate synthase (Micrococcus luteus, UniProt O82827, L91G); experiment: Relative activity of variant enzyme L91G on initiating substrates; type: biochemical, Micrococcus luteus B-P 26; settings: index, activity of wild-type enzyme on same initiating substrate as 100; 12.5 μM initiating substrate, 1 hour, 37° C.
T9 construct: made in house; host or cells: E. coli; site-directed mutagenesis of pET22b/MLU-UPS
Protocol: as §1, §2

[10] = molecular target: T10, variant enzyme F95A of undecaprenyl diphosphate synthase (Micrococcus luteus, UniProt O82827, F95A); experiment: Relative activity of variant enzyme F95A on initiating substrates; type: biochemical, Micrococcus luteus B-P 26; settings: index, activity of wild-type enzyme on same initiating substrate as 100; 12.5 μM initiating substrate, 1 hour, 37° C.
T10 construct: made in house; host or cells: E. coli; site-directed mutagenesis of pET22b/MLU-UPS
Protocol: as §1, §2

[11] = molecular target: T11, variant enzyme L91K of undecaprenyl diphosphate synthase (Micrococcus luteus, UniProt O82827, L91K); experiment: Relative activity of variant enzyme L91K on initiating substrates; type: biochemical, Micrococcus luteus B-P 26; settings: index, activity of wild-type enzyme on same initiating substrate as 100; 12.5 μM initiating substrate, 1 hour, 37° C.
T11 construct: made in house; host or cells: E. coli; site-directed mutagenesis of pET22b/MLU-UPS
Protocol: as §1, §2

[12] = molecular target: T12, variant enzyme N77Q of undecaprenyl diphosphate synthase (Micrococcus luteus, UniProt O82827, N77Q); experiment: Relative activity of variant enzyme N77Q on initiating substrates; type: biochemical, Micrococcus luteus B-P 26; settings: index, activity of wild-type enzyme on same initiating substrate as 100; 12.5 μM initiating substrate, 1 hour, 37° C.
T12 construct: made in house; host or cells: E. coli; site-directed mutagenesis of pET22b/MLU-UPS
Protocol: as §1, §2

[13] = molecular target: T13, variant enzyme L91N of undecaprenyl diphosphate synthase (Micrococcus luteus, UniProt O82827, L91N); experiment: Relative activity of variant enzyme L91N on initiating substrates; type: biochemical, Micrococcus luteus B-P 26; settings: index, activity of wild-type enzyme on same initiating substrate as 100; 12.5 μM initiating substrate, 1 hour, 37° C.
T13 construct: made in house; host or cells: E. coli; site-directed mutagenesis of pET22b/MLU-UPS
Protocol: as §1, §2

[14] = activity of the enzyme on farnesyl diphosphate as 100
[15] = activity of the enzyme on geranyl diphosphate as 100

T9 sequence (O82827 whole entry L91G): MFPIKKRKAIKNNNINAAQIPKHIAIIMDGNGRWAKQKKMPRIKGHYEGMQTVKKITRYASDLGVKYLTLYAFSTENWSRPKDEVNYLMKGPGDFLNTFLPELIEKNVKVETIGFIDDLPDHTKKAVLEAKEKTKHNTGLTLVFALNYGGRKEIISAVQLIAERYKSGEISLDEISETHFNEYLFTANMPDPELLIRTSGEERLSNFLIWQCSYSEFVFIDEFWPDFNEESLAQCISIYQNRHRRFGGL
T7 sequence (O82827 whole entry L91D): as the sequence (O82827 whole entry L91G) above, with G91D counted along it
T12 sequence (O82827 whole entry N77Q): as the sequence (O82827 whole entry L91G) above, with N77Q, G91L counted along it
T11 sequence (O82827 whole entry L91K): as the sequence (O82827 whole entry L91G) above, with G91K counted along it
T5 sequence (Q08291 whole entry): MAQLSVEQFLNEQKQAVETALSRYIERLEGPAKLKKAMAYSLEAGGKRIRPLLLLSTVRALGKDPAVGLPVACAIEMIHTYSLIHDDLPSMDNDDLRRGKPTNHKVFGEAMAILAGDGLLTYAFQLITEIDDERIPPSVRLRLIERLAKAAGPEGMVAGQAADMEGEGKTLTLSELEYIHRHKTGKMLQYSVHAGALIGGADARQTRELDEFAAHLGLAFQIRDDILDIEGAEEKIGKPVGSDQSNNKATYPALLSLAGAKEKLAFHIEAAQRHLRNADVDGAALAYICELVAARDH
T2 sequence (O82827 whole entry N31Q): as the sequence (O82827 whole entry L91G) above, with N31Q, G91L counted along it
T13 sequence (O82827 whole entry L91N): as the sequence (O82827 whole entry L91G) above, with G91N counted along it
T4 sequence (P39464 whole entry): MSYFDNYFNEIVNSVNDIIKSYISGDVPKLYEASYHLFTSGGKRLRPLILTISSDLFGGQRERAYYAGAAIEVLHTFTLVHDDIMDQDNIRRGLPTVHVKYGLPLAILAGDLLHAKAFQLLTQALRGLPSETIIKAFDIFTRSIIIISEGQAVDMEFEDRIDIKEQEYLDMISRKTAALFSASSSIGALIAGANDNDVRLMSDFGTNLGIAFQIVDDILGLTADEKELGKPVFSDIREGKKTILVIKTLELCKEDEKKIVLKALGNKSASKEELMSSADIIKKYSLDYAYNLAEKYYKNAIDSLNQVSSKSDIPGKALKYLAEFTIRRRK
T1 sequence (O82827 whole entry N31A): as the sequence (O82827 whole entry L91G) above, with N31A, G91L counted along it
T10 sequence (O82827 whole entry F95A): as the sequence (O82827 whole entry L91G) above, with G91L, F95A counted along it
T3 sequence (O82827 whole entry N77A): as the sequence (O82827 whole entry L91G) above, with N77A, G91L counted along it
T8 sequence (O82827 whole entry F95W): as the sequence (O82827 whole entry L91G) above, with G91L, F95W counted along it
T6 sequence (O82827 whole entry): as the sequence (O82827 whole entry L91G) above, with G91L counted along it

Compound	Relative activity [1]	Relative activity [2]	Relative activity [3]	Relative activity (%) [4, 14]	Relative activity (%) [4, 15]	Relative activity (%) [5]	Relative activity (%) [6]	Relative activity [7]	Relative activity [8]	Relative activity [9]	Relative activity [10]	Relative activity [11]	Relative activity [12]	Relative activity [13]
COCOC/C(C)=C/CC/C(C)=C/COP(=O)(O)OP(=O)(O)O [Compound of formula (H), 8-methoxymethoxy-3,7-dimethyl-octa-(2E,6E)-dienyl diphosphate]	152	110	162											
C/C=C/COP(=O)(O)OP(=O)(O)O [Initiating substrate 1, 2E-butenyl diphosphate]				2.3%	0.4%	1.4%	0.3%							
CCC(CC/C(C)=C/CC/C(C)=C/COP(=O)(O)OP(=O)(O)O)C(C)=O [Compound of formula (S), 10-acetyl-3,7-dimethyl-dodeca-(2E,6E)-dienyl diphosphate]	116							227	130	130	163	147		
CCC(O)CC/C(C)=C/CC/C(C)=C/COP(=O)(O)OP(=O)(O)O [Compound of formula (R), 10-hydroxy-3,7-dimethyl-dodeca-(2E,6E)-dienyl diphosphate]	200	146	254					230	121	110	140	165	156	137
CCCCC(O)/C(C)=C/CC/C(C)=C/COP(=O)(O)OP(=O)(O)O (stereo not drawn) [Compound of formula (C), 8-hydroxy-3,7-dimethyl-dodeca-(2E,6E)-dienyl diphosphate]	111		234	37.3%			74.8%	155		146		130		108
CCCSC/C(C)=C/CC/C(C)=C/COP(=O)(O)OP(=O)(O)O [Compound of formula (M), 8-n-propylthio-3,7-dimethyl-octa-(2E,6E)-dienyl diphosphate]	149	101	127					123				112		139
CCCCC(OC)/C(C)=C/CC/C(C)=C/COP(=O)(O)OP(=O)(O)O (stereo not drawn) [Compound of formula (B), 8-methoxy-3,7-dimethyl-dodeca-(2E,6E)-dienyl diphosphate]	116		319	70.6%			68.4%	231	140	149	128	156		
CC(C)=CCC/C(C)=C/CC/C=C/COP(=O)(O)OP(=O)(O)O [Initiating substrate 3, 7,11-dimethyl-dodeca-2E,6E,10E-trienyl diphosphate]				3.9%	0.6%	2.1%	1.2%							
CC(C)=CCC/C(C)=C/CC/C(C)=C/CC/C=C/COP(=O)(O)OP(=O)(O)O [Initiating substrate 4, 7,11,15-trimethyl-hexadeca-2E,6E,10E,14E-tetraenyl diphosphate]				1.4%	0.8%	0.7%	5.9%							
C/C(=C\COP(=O)(O)OP(=O)(O)O)CC/C=C(\C)CO[Si](C)(C)C(C)(C)C [Compound of formula (P), 8-[(tert-butyldimethylsilyl)oxy]-3,7-dimethyl-octa-(2E,6E)-dienyl diphosphate]								112	130	104	104			
7-acetyl-7-aza-3-methyl-dodeca-(2E)-dienyl diphosphate [Compound of formula (K)]				38.6%			40.6%		148		136	112		
C/C(=C\COP(=O)(O)OP(=O)(O)O)CC/C=C(\C)COCc1ccccc1 [Compound of formula (N), 8-benzyloxy-3,7-dimethyl-octa-(2E,6E)-dienyl diphosphate]			112						147		132		133	
CC[C@@H](O)CC/C(C)=C/CC/C(C)=C/COP(=O)(O)OP(=O)(O)O [Compound of formula (E), (10R)-hydroxy-3,7-dimethyl-dodeca-(2E,6E)-dienyl diphosphate]	222	210	396					320	114	170	120	163	194	271
CC(C)=CCC/C=C/COP(=O)(O)OP(=O)(O)O [Initiating substrate 2, 7-methyl-octa-2E,6E-dienyl diphosphate]				2.5%	0.4%	3.2%	0.6%							
CC[C@H](O)CC/C(C)=C/CC/C(C)=C/COP(=O)(O)OP(=O)(O)O [Compound of formula (D), (10S)-hydroxy-3,7-dimethyl-dodeca-(2E,6E)-dienyl diphosphate]	179	104	208					125	120	134		101	124	103
